The values below come from US8030547B2, “Gene coding for acetolactate synthase” (priority 2002, dated 2011).

Several values for one entry are separate records, joined by “and”; a condition that tells them apart may be missing. Equal values may be shown once.

Format in all cases: biochemical, rice (Oryza sativa var. Kinmaze)
Experiment [1] has as its target T1, GST fusion P171H/W548L mutant ALS protein (Oryza sativa subsp. japonica, UniProt Q6K2E8, P171H/W548L).
T1 construct: made in house; host or cells: E. coli, pGEX-2T(ALS-P171H, W548L mutant); crude supernatant
In words: Herbicide sensitivity of ALS protein expressed in E. coli (crude enzyme solution), P171H/W548L. Conditions: for RS ratio/ predicted RS ratio / Predicted RS ratio: P171H/W548L mutant; for RS ratio: P171H/W548L mutant vs wild type; for Predicted RS ratio: product of RS ratios of the 1-point mutants; for inhibition at 100 µM: read-out: inhibition % at the highest concentration among the concentrations tested, P171H/W548L mutant, in 100 μM. On the procedure: (§1) ALS activity resulting from the mutant ALS protein contained in the eluted fractions apportioned into each test tube for apportioning was measured as follows. A reaction solution to be used in a measurement reaction was prepared by mixing an eluted fraction to be measured with a solution comprising 20 mM sodium pyruvate, 0.5 mM TPP, 0.5 mM MgCl2, 10 μM FAD and 20 mM potassium phosphate buffer (pH 7.5). One ml of this reaction solution was used. After the eluted fraction to be measured was added, the measurement reaction was performed at 30° C. for 40 to 60 minutes. Then, the reaction was stopped by addition of 0.1 ml of 6N sulfuric acid (or 0.25 N sodium hydroxide).
(§2) After the reaction was stopped, the reaction solution was incubated at 60° C. for 10 minutes, thereby converting acetolactate contained in the reaction solution to acetoin.
(§3) Then, to quantify acetoin contained in the reaction solution, 1 ml of 0.5% (w/v) creatine and 1 ml of 5% (w/v) α-naphthol dissolved in 2.5 N sodium hydroxide was added to the reaction solution, followed by incubation at 37° C. for 10 minutes. Acetoin was then quantified by color comparison of the absorbance (at 525 nm) of the reaction solution, thereby evaluating ALS activity. In addition, since the reaction solution contained a small amount of sodium pyruvate, reaction time 0 was used as control.
(§4) E. coli transformed with pGEX-2T(ALS-wild) constructed in Example 3(5), E. coli transformed with pGEX-2T(ALS-W548L mutant) constructed in Example 5, E. coli transformed with pGEX-2T(ALS-S627I mutant) constructed in Example 5, E. coli transformed with pGEX-2T(ALS P171H mutant) constructed in Example 6, E. coli transformed with pGEX-2T(ALS R172S mutant) constructed in Example 6, E. coli transformed with pGEX-2T(ALS P171H, R172S mutant) constructed in Example 7, E. coli transformed with pGEX-2T(ALS-P171H, W548L mutant) constructed in Example 8, E. coli transformed with pGEX-2T(ALS-P171H, S627I mutant) constructed in Example 8, and E. coli transformed with pGEX-2T(ALS-P171H, W548L, S627I mutant) constructed in Example 9 were respectively shake-cultured (pre-culture) at 27° C. in 2 ml of LB liquid medium containing ampicillin. These types of E. coli were respectively cultured in 250 ml of LB liquid medium containing ampicillin using 1 ml of the pre-culture solution. After culturing overnight, 1 mM IPTG was added to the media, and then culturing was performed for a further 3 to 4 hours, so that the expression of GST fusion protein was induced. In addition, the cells were stored at −80° C. after washing.
(§5) Preparation and purification of ALS from E. coli were performed by the following method. First, the pellet of the transformant E. coli stored at −80° C. was suspended in ALS extraction buffer (potassium phosphate buffer (pH 7.5) containing 30% glycerol and 0.5 mM MgCl2). Specifically, 2.5 ml of the buffer was added to the pellet obtained from 50 ml of the culture solution. The suspension was subjected to ultrasonication (Heat Systems-Ultrasonics, Sonicator W-225R, micro chip, output control 8, interval of approximately 1 second, twice (40 seconds each)), and subjected to centrifugation at 15000×g, 4° C. for 20 minutes, thereby obtaining the supernatant as a crude enzyme solution.
(§6) Herbicide sensitivity of the wild type ALS protein and that of mutant ALS protein were examined using the 9 types of crude enzyme solutions obtained in Example 10. Herbicide sensitivity test was performed according to procedures almost the same as those in Example 2. However, in this example, reaction temperature was 37° C., reaction time was 30 minutes, and 10 mM valine was added to the reaction solution to inhibit ALS activity derived from E. coli. Further, three types of herbicides, bispyribac-sodium, pyrithiobac-sodium, and pyriminobac, were used as PC herbicides; chlorsulfuron was used as a sulfonylurea herbicide; and imazaquin was used as an imidazolinon herbicide. […]

The target of experiment [2] is T2, GST fusion W548L mutant ALS protein (Oryza sativa subsp. japonica, UniProt Q6K2E8, W548L).
T2 construct: an expression vector having the full-length wild type ALS cDNA incorporated into the Eco RI site of pGEX-2T; made in house; host or cells: E. coli JM109, pGEX 2T(ALS-W548L mutant); crude supernatant
In words: Herbicide sensitivity of ALS protein expressed in E. coli (crude enzyme solution), W548L. To be noted: for RS ratio: W548L mutant vs wild type. How it is done:
as §1, §2, §3, §4, §5, §6

The target of experiment [3] is T3, GST fusion P171H mutant ALS protein (Oryza sativa subsp. japonica, UniProt Q6K2E8, P171H).
T3 construct: an expression vector having the full-length wild type ALS cDNA incorporated into the Eco RI site of pGEX-2T; made in house; host or cells: E. coli JM109, pGEX-2T(ALS P171H mutant); crude supernatant
In words: Herbicide sensitivity of ALS protein expressed in E. coli (crude enzyme solution), P171H. To be noted: for RS ratio: P171H mutant vs wild type. How it is done: as §1, §2, §3, §4, §5, §6

For experiment [4], the target named is T4, GST fusion R172S mutant ALS protein (Oryza sativa subsp. japonica, UniProt Q6K2E8, R172S).
T4 construct: an expression vector having the full-length wild type ALS cDNA incorporated into the Eco RI site of pGEX-2T; made in house; host or cells: E. coli JM109, pGEX-2T(ALS R172S mutant); crude supernatant
In words: Herbicide sensitivity of ALS protein expressed in E. coli (crude enzyme solution), R172S. To be noted: for RS ratio: R172S mutant vs wild type. On the procedure: as §1, §2, §3, §4, §5, §6

The target of experiment [5] is T5, GST fusion P171H/R172S mutant ALS protein (Oryza sativa subsp. japonica, UniProt Q6K2E8, P171H/R172S).
T5 construct: made in house; host or cells: E. coli JM109, pGEX-2T(ALS P171H, R172S mutant); crude supernatant
In words: Herbicide sensitivity of ALS protein expressed in E. coli (crude enzyme solution), P171H/R172S. Conditions: for RS ratio/ predicted RS ratio / Predicted RS ratio: P171H/R172S mutant; for RS ratio: P171H/R172S mutant vs wild type; for Predicted RS ratio: product of RS ratios of the 1-point mutants. On the procedure:
as §1, §2, §3, §4, §5, §6

T3 sequence (Q6K2E8 44-644 P171H): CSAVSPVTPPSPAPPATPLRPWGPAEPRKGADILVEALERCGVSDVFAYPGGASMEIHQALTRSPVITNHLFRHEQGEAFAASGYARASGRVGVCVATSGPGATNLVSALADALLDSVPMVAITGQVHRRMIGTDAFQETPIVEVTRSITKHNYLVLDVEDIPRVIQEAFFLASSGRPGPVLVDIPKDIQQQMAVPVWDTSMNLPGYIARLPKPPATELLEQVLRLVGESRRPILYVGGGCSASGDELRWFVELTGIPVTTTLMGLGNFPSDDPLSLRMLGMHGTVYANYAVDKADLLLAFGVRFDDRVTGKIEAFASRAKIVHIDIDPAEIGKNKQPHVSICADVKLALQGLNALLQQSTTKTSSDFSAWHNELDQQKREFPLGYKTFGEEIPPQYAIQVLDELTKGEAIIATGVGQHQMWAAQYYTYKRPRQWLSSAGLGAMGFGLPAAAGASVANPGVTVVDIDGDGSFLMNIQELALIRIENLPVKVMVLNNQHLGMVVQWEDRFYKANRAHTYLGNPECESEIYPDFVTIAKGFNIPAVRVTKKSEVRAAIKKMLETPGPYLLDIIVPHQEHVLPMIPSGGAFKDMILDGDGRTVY
T1 sequence (Q6K2E8 44-644 P171H/W548L): as the sequence (Q6K2E8 44-644 P171H) above, with W505L counted along it
T4 sequence (Q6K2E8 44-644 R172S): as the sequence (Q6K2E8 44-644 P171H) above, with H128P, R129S counted along it
T2 sequence (Q6K2E8 44-644 W548L): as the sequence (Q6K2E8 44-644 P171H) above, with H128P, W505L counted along it
T5 sequence (Q6K2E8 44-644 P171H/R172S): as the sequence (Q6K2E8 44-644 P171H) above, with R129S counted along it

One may read the IC50 as the midpoint of a concentration-inhibition curve. Higher therefore signals lower potency. Turning to `COc1cc(OC)nc(Oc2cccc(Oc3nc(OC)cc(OC)n3)c2C(=O)O)n1` [bispyribac-sodium], in experiment [1], the “RS ratio/ predicted RS ratio” value is on record as over 3.3, the RS ratio was over 15000, the “Predicted RS ratio” value is given as 4500 and the inhibition at 100 µM came out at 5%. In experiment [2], the IC50 amounted to 3300 nM and the RS ratio turned out to be 520. In experiment [3], half-maximal inhibition (IC50) was put at 55 nM and the RS ratio is recorded as 8.7. In addition, in experiment [4], the half-inhibitory concentration (IC50) stood at 6.2 nM and the RS ratio turned out to be 0.98. In experiment [5], 48 nM corresponded to half-maximal inhibition (IC50), the “RS ratio/ predicted RS ratio” value was 0.89, the RS ratio turned out to be 7.6 and the “Predicted RS ratio” value is reported as 8.5.

For `COc1nc(C)nc(NC(=O)NS(=O)(=O)c2ccccc2Cl)n1` [chlorsulfuron], in experiment [1], the “RS ratio/ predicted RS ratio” value was over 0.18, the RS ratio is on record as over 7700, the “Predicted RS ratio” value was 65000 and the inhibition at 100 µM was 16%. Further, in experiment [2], 9900 nM corresponded to half-maximal inhibition (IC50) and the RS ratio is 760. In experiment [3], inhibition was half-maximal at 1100 nM (IC50) and the RS ratio stood at 85. For the same molecule, in experiment [4], the midpoint of inhibition, the IC50, lay at 11 nM and the RS ratio is given as 0.85. For the same molecule, in experiment [5], the IC50 was found to be 5500 nM, the “RS ratio/ predicted RS ratio” value is 5.8, the RS ratio amounted to 420 and the “Predicted RS ratio” value is recorded as 72.

For the molecule `CC(C)C1(C)N=C(c2nc3ccccc3cc2C(=O)O)NC1=O` (centres unmarked) [imazaquin], the RS ratio in experiment [1] is over 45; in experiment [2], over 45; in experiment [3], 1.5; in experiment [4], 0.98 and 1; in experiment [5], 1.8. Further, the results for the “Predicted RS ratio” value in experiment [1] and in experiment [5] were over 68 and 1.5, respectively. Besides, the inhibition at 100 µM in experiment [1] was found to be 13%; in experiment [2] (read-out: inhibition % at the highest concentration among the concentrations tested, W548L mutant, in 100 μM) it was 14%. Further, the IC50 stood at 3400 nM in experiment [3], 2300 nM in experiment [4] and 3900 nM in experiment [5]. In experiment [5], the “RS ratio/ predicted RS ratio” value was 1.2.
